Test system: 5-HT3 receptors
Assay: antagonism of the von Bezold-Jarisch reflex (bradycardia) induced by 5-HT in the anaesthetised rat
Type: in vivo
Conditions: i.v., hydrochloride salt, 5 min before 5-HT 30 μg/kg, urethane-anaesthetised rats
Procedure: Temporary bradycardia is induced by administration of 5-HT (serotonin) to anaesthetised rats via jugular vein (von Bezold Jarisch Reflex) (A. S. Paintal, Physiol. Rev., 53, 159-210 (1973)).
The compounds of the present invention were evaluated for antagonism of the von Bezold-Jarisch reflex induced by 5-HT in the anaesthetised rat according to the following method.
Rats were anaesthetised with urethane (1 g/kg, intraperitoneally) and blood pressure and heart rate recorded from left femoral artery. Percent inhibition was calculated from bradycardia induced by 5-HT (30 μg/kg) given 5 minutes following intrajugular administration of a compound of the invention, taking the bradycardia induced by the intrajugular administration of 5-HT. The compounds of the present invention were tested in the form of their hydrochloride salts.

CN1[C@@H]2CSC[C@H]1C[C@@H](OC(=O)c1c[nH]c3ccccc13)C2 [Example 1, (Endo-9-methyl-3-thia-9-azabicyclo[3.3.1]non-7-yl) 1H-indole-3-carboxylate]
Percent Inhibition (0.1 μg/kg): 51%
Percent Inhibition (1.0 μg/kg): 85%

CN1[C@@H]2COC[C@H]1C[C@@H](OC(=O)c1c[nH]c3ccccc13)C2 [Example 2, (Endo-9-methyl-3-oxa-9-azabicyclo[3.3.1]non-7-yl) 1H-indole-3-carboxylate]
Percent Inhibition (0.1 μg/kg): 54%
Percent Inhibition (1.0 μg/kg): 93%

CN1[C@@H]2CSC[C@H]1C[C@@H](OC(=O)c1nn(C)c3ccccc13)C2 [Example 3, (Endo-9-methyl-3-thia-9-azabicyclo[3.3.1]non-7-yl) 1-methylindazole-3-carboxylate]
Percent Inhibition (0.1 μg/kg): 43%
Percent Inhibition (1.0 μg/kg): 67%

CN1[C@@H]2COC[C@H]1C[C@@H](OC(=O)c1nn(C)c3ccccc13)C2 [Example 4, (Endo-9-methyl-3-oxa-9-azabicyclo[3.3.1]non-7-yl) 1-methylindazole-3-carboxylate]
Percent Inhibition (0.1 μg/kg): 59%
Percent Inhibition (1.0 μg/kg): 80%

COc1cc(N)c(Cl)cc1C(=O)O[C@H]1C[C@H]2CSC[C@@H](C1)N2C [Example 5, (Endo-9-methyl-3-thia-9-azabicyclo[3.3.1]non-7-yl) 4-amino-5-chloro-2-methoxy benzoate]
Percent Inhibition (10 μg/kg): 58%

CN1[C@@H]2COC[C@H]1C[C@@H](NC(=O)c1c[nH]c3ccccc13)C2 [Example 7, Endo-9-methyl-3-oxa-9-azabicyclo[3.3.1]non-7-yl 1H-indole-3-carboxamide]
Percent Inhibition (1.0 μg/kg): 36%
Percent Inhibition (10 μg/kg): 72%

CN1C[C@H]2C[C@@H](OC(=O)c3c[nH]c4ccccc34)C[C@@H](C1)N2C [Example 9, (Endo-3,9-dimethyl-3,9-diazabicyclo[3.3.1]non-7-yl) 1H-indole-3-carboxylate]
Percent Inhibition (0.1 μg/kg): 28%
Percent Inhibition (1.0 μg/kg): 58%
Percent Inhibition (10 μg/kg): 91%

CN1C[C@H]2C[C@@H](NC(=O)c3c[nH]c4ccccc34)C[C@@H](C1)N2C [Example 11, Endo-3,9-dimethyl-3,9-diazabicyclo[3.3.1]non-7-yl 1H-indole-3-carboxamide]
Percent Inhibition (1.0 μg/kg): 39%
Percent Inhibition (10 μg/kg): 79%

CN1C[C@H]2C[C@@H](NC(=O)c3nn(C)c4ccccc34)C[C@@H](C1)N2C [Example 12, Endo-3,9-dimethyl-3,9-diazabicyclo[3.3.1]non-7-yl 1-methylindazole-3-carboxamide]
Percent Inhibition (0.1 μg/kg): 25%
Percent Inhibition (1.0 μg/kg): 71%

CN1C[C@H]2C[C@@H](NC(=O)c3n[nH]c4ccccc34)C[C@@H](C1)N2C [Example 13]
Percent Inhibition (1.0 μg/kg): 28%
Percent Inhibition (10 μg/kg): 95%

CCn1nc(C(=O)N[C@@H]2C[C@@H]3CN(C)C[C@H](C2)N3C)c2ccccc21 [Example 15, Endo-3,9-dimethyl-3,9-diazabicyclo[3.3.1]non-7-yl 1-ethylindazole-3-carboxamide]
Percent Inhibition (0.1 μg/kg): 42%
Percent Inhibition (1.0 μg/kg): 91%

CC(C)n1nc(C(=O)N[C@@H]2C[C@@H]3CN(C)C[C@H](C2)N3C)c2ccccc21 [Example 16, Endo-3,9-dimethyl-3,9-diazabicyclo[3.3.1]non-7-yl 1-(2-propyl)indazole-3-carboxamide]
Percent Inhibition (0.1 μg/kg): 59%

CN1C[C@H]2C[C@@H](NC(=O)c3nn(Cc4ccccc4)c4ccccc34)C[C@@H](C1)N2C [Example 17, Endo-3,9-dimethyl-3,9-diazabicyclo[3.3.1]non-7-yl 1-benzylindazole-3-carboxamide]
Percent Inhibition (0.1 μg/kg): 43%
Percent Inhibition (1.0 μg/kg): 91%

CCCCCCCCn1nc(C(=O)N[C@@H]2C[C@@H]3CN(C)C[C@H](C2)N3C)c2ccccc21 [Example 18, Endo-3,9-dimethyl-3,9-diazabicyclo[3.3.1]non-7-yl 1-(n-octyl)indazole-3-carboxamide]
Percent Inhibition (1.0 μg/kg): 15%

CN(C)CCn1nc(C(=O)N[C@@H]2C[C@@H]3CN(C)C[C@H](C2)N3C)c2ccccc21 [Example 19, Endo-3,9-dimethyl-3,9-diazabicyclo[3.3.1]non-7-yl 1-[2-(dimethylamino)ethyl]indazole-3-carboxamide]
Percent Inhibition (1.0 μg/kg): 10%

COc1cc(N)c(Cl)cc1C(=O)N[C@@H]1C[C@@H]2CN(C)C[C@H](C1)N2C [Example 22, Endo-3,9-dimethyl-3,9-diazabicyclo[3.3.1]non-7-yl 4-amino-5-chloro-2-methoxyphenylcarboxyamide]
Percent Inhibition (1.0 μg/kg): 43%
Percent Inhibition (10 μg/kg): 89%
